Data: patent publication US11976083B2, “Inhibitors of peptidylarginine deiminases” (Gilead Sciences, Inc., priority 2020, dated 2024)

target: T1, human PAD4 (Homo sapiens, UniProt Q9UM07); assay: In vitro PAD4 BAEE biochemical assay; settings: BAEE substrate 3 mM, 5 nM PAD4, 2 mM calcium chloride; geometric mean of multiple experiments
T1 construct: human PAD4 (NM_012387), A2-P663, was PCR amplified; His-SUMO (N, cleaved yes); made in house; host or cells: E. coli BL21(DE3)
Excerpt: In Vitro PAD4 BAEE Biochemical Assay
The enzymatic activity of human PAD4 was monitored in a biochemical assay in the presence or absence of compounds using the small peptidyl arginine mimic BAEE (Na-Benzoyl-L-arginine ethyl ester hydrochloride) as substrate. PAD4 activity led to deimination of BAEE and release of ammonia. Levels of ammonia were monitored by using an amine coupling reaction and were indicative of PAD4 enzymatic activity.
One hundred nanoliters of test compounds dissolved in DMSO at various concentrations were dispensed into a 384-well black OptiPlate using a Labcyte Echo instrument. Ten microliters of a solution of recombinant PAD4 and calcium chloride diluted in PAD4 assay buffer (50 mM MOPS [3-(N-morpholino) propanesulfonic acid], pH 7.6; 50 mM sodium chloride; 0.05% Tween-20; 2 mM dithiothreitol) was added to the compound-containing plate and was incubated for 30 minutes at 25° C. Ten microliters of a solution of BAEE (Sigma-Aldrich #B4500) diluted in PAD4 assay buffer was then added to start the reaction. Final concentrations were 5 nM PAD4, 2 mM calcium chloride, and 3 mM BAEE. The reaction mixture was incubated at 25° C. for 2 hours and was stopped with the addition of 10 microliters of a solution of 75 mM EDTA (Ethylenediaminetetraacetic acid) in PAD4 assay buffer. Thirty microliters of detection solution (5 mM o-phthalaldehyde, 50 mM MOPS [3-(N-morpholino) propanesulfonic acid], pH 7.6; 50 mM sodium chloride; 0.05% Tween-20; 5 mM dithiothreitol) was then added and the reaction was incubated for 1 hour at 25° C. The level of fluorescent thiol-substituted isoindole resulting from the reaction of ammonia, o-phthalaldehyde, and dithiothreitol was measured on an Envision plate reader (PerkinElmer) with 405 nm excitation and 535 nm emission.
Data were normalized based on maximum inhibition (50 micromolar of the covalent PAD inhibitor BB-Cl-Amidine (Bicker, K. L.; Anguish, L.; Chumanevich, A. A.; Cameron, M. D.; Cui, X.; Witalison, E.; Subramanian, V.; Zhang, X.; Chumanevich, A. P.; Hofseth, L. J.; Coonrod, S. A.; Thompson, P. R. ACS Med. Chem. Lett. 2012, 3, 1081-1085). and no inhibition (DMSO) controls. Least squares curve fittings were performed using a four-parameter variable slope nonlinear regression model. IC50 is defined as the concentration of compound required to inhibit 50% of maximum activity. IC50 values from multiple experiments were averaged by geometric mean and the standard deviation was calculated.

T1 sequence (Q9UM07 2-663): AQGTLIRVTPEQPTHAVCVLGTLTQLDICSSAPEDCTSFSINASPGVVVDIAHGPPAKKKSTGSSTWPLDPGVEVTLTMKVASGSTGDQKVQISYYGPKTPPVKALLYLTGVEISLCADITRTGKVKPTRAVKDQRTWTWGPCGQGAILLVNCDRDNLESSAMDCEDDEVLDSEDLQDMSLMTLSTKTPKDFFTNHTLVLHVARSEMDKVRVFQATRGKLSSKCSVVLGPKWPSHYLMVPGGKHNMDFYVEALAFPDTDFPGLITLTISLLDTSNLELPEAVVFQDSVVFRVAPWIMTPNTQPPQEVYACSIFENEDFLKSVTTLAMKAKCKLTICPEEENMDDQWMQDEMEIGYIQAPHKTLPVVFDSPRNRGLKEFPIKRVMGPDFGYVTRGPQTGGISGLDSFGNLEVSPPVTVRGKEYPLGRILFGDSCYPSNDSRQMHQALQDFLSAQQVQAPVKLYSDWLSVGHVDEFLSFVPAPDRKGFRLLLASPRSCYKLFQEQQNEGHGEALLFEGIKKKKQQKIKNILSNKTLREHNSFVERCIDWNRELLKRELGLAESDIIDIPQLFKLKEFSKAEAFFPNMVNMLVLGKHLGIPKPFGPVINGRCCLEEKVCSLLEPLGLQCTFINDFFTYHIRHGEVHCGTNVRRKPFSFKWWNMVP

| Structure (SMILES) | IC50 [nM] |
| --- | --- |
| COc1cc(C(=O)N2CCC[C@@H](N)C2)cc2nc(-c3cc4ccc5nc4n3CCCCCCC(C)(C)C(=O)N[C@@H]5C)n(C3CC3)c12 [Example 230, (11~{R})-17-[5-[(3~{R})-3-aminopiperidine-1-carbonyl]-1-cyclopropyl-7-methoxy-benzimidazol-2-yl]-8,8,11-trimethyl-1,10,19-triazatricyclo[10.5.2.0^{15,18}]nonadeca-12(19),13,15(18),16-tetraen-9-one] | 84 |
| C[C@H]1NC(=O)[C@@H]2C[C@H]2CCCCCn2c(-c3nc4cc(C(=O)N[C@H]5CNCC[C@@H]5F)c(F)cc4n3CCOC(F)(F)F)cc3ccc1nc32 [Example 599, 6-fluoro-~{N}-[(3~{S},4~{S})-4-fluoro-3-piperidyl]-2-[(2~{R}, 5~{R},7~{R})-2-methyl-4-oxo-3,13,19-triazatetracyclo[11.5.2.0^ {5,7}.0^{16,20}]icosa-1(19),14,16(20),17-tetraen-14-yl]-1-[2-(trifluoromethoxy)ethyl]benzimidazole-5-carboxamide] | 67 |
| C[C@H]1NC(=O)[C@@H]2C[C@H]2CCCCCn2c(-c3nc4cc(C(=O)N[C@H]5CNCC[C@@H]5F)c(F)cc4n3CCC#N)cc3ccc1nc32 [Example 426, 1-(2-cyanoethyl)-6-fluoro-~{N}-[(3~{S},4~{S})-4-fluoro-3-piperidyl]-2-[(2~{R},5~{R},7~{R})-2-methyl-4-oxo-3,13,19-triazatetracyclo[11.5.2.0^{5,7}.0^{16,20}]icosa-1(19),14,16(20),17-tetraen-14-yl]benzimidazole-5-carboxamide] | 25 |
| COC1CC1n1c(-c2cc3ccc4nc3n2CCCCC[C@@H]2C[C@H]2C(=O)N[C@@H]4C)nc2cc(C(=O)N[C@H]3CNCC[C@@H]3F)c(F)cc21 (stereo partly shown) [Example 607, 6-fluoro-~{N}-[(3~{S),4~ {S})-4-fluoro-3-piperidyl]-1-(2-methoxycyclopropyl)-2-[(2~{R},5~{R},7~{R})-2-methyl-4-oxo-3,13,19-triazatetracyclo[11.5.2.0^ {5,7}.0^{16,20}]icosa-1(18),14,16,19-tetraen-14-yl]benzimidazole-5-carboxamide] | 51 |

Other lines, results leading:

| IC50 [nM] | Structure (SMILES) |
| --- | --- |
| 40 | C[C@H]1NC(=O)c2nccnc2CCCCCn2c(-c3nc4cc(C(=O)N5C[C@H](N)[C@@H]6CC[C@H]5C6)c(F)c(F)c4n3C3CC3)cc3ccc1nc32 [Example 877, (2~{R})-17-[5-[(1~{S},4~{R}, 5~{})-4-amino-2-azabicyclo [3.2.1]octane-2-carbonyl]-1-cyclopropyl-6,7-difluoro-benzimidazol-2-yl]-2-methyl-3,6,9,16,22-pentazatetracyclo [14.5.2.0^{5,10}.0^{19,23}] tricosa-1(22),5(10),6,8,17,19(23), 20-heptaen-4-one] |
| 17 | C[C@H]1NC(=O)c2cnc(C(F)F)cc2CCCCCn2c(-c3nc4cc(C(=O)N5C[C@H](N)[C@@H]6CC[C@H]5C6)cc(F)c4n3C3CC3)cc3ccc1nc32 [Example 674, (2~{R})-17-[5-[(1~{S},4~ {R},5~{R})-4-amino-2-azabicyclo[3.2.1]octane-2-carbonyl]-1-cyclopropyl-7-fluoro-benzimidazol-2-yl]-8-(difluoromethyl)-2-methyl-3,7,16,22-tetrazatetracyclo[14.5.2.0^ {5,10).0^{19,23}]tricosa-1(22),5(10),6,8,17,19(23), 20-heptaen-4-one] |
| 25 | COc1cc(C(=O)N2C[C@H]3CC[C@@H]2[C@@H]3N)cc2nc(-c3cc4ccc5nc4n3CCCCCc3cncc(F)c3C(=O)N[C@@H]5C)n(C)c12 [Example 658, (2~{R})-17-[5-[(1~{R},4~ {R},7~{R})-7-amino-2-azabicyclo[2.2.1]heptane-2-carbonyl]-7-methoxy-1-methyl-benzimidazol-2-yl]-6-fluoro-2-methyl-3,8,16,22-tetrazatetracyclo[14.5.2.0^ {5,10).0^{19,23}] tricosa-1(22),5,7,9,17,19(23), 20-heptaen-4-one] |
